Measured values published in patent US12104180B2, “Enzyme with acyl transfer function and application thereof” (OCEAN UNIVERSITY OF CHINA, priority 2020, dated 2024).

Assays:
[1] = tested on: methicillin-resistant Staphylococcus aureus; conditions: cited from earlier work
[2] = tested on: vancomycin-resistant Enterococci; conditions: cited from earlier work
[3] = tested on: Burkholderia cepacia varieties; conditions: cited from earlier work
[4] = tested on: B1-F10 murine melanoma cells; conditions: cited from earlier work
[5] = tested on: mammalian herpes simplex virus; conditions: cited from earlier work
HIV virus = conditions: cited from earlier work
Staphylococcus aureus = conditions: cited from earlier work
Pyricularia oryzae = conditions: cited from earlier work
Alternaria alternata = conditions: cited from earlier work
[6] = format: biochemical; conditions: 30° C., 2 h, substrate Macrolactin A

For CC1CCCC=CC=CC(O)CC(O)CC=CC=CC(OC(=O)CC(=O)O)CC=CC=CC(=O)O1 (centres unmarked) [7-O-malonyl Macrolactin A], the “inhibition of methicillin-resistant Staphylococcus aureus” value [1] is listed as “can sufficiently inhibit”, the “inhibition of vancomycin-resistant Enterococci” value [2] is listed as “can sufficiently inhibit” and the “inhibition of Burkholderia cepacia varieties” value [3] is listed as “can sufficiently inhibit”.

In the case of C[C@@H]1CCC/C=C/C=C/[C@H](O)C[C@@H](O)C/C=C\C=C\[C@@H](O)C/C=C/C=C\C(=O)O1 [Macrolactin A], the “inhibition of B1-F10 murine melanoma cells” value [4] is listed as “can inhibit”, the “inhibition of mammalian herpes simplex virus” value [5] is listed as “can inhibit” and the “protection of lymphocytes through inhibiting HIV virus” value (HIV virus) is listed as “can protect lymphocytes”.

For Macrolactin B, the “inhibition of Staphylococcus aureus” value (Staphylococcus aureus) is given as “inhibit”, the “effect on plant pathogenic fungus Pyricularia oryzae” value (Pyricularia oryzae) is given as “obvious effects” and the “effect on plant pathogenic fungus Alternaria alternata” value (Alternaria alternata) is given as “obvious effects”.

For Macrolactin T, the “inhibition of Staphylococcus aureus” value (Staphylococcus aureus) is listed as “inhibit”, the “effect on plant pathogenic fungus Pyricularia oryzae” value (Pyricularia oryzae) is listed as “obvious effects” and the “effect on plant pathogenic fungus Alternaria alternata” value (Alternaria alternata) is listed as “obvious effects”.

B1: wild-type BmmI protein: acyltransferase BmmI from marine-derived Bacillus methylotrophicus B-9987, sequence SEQ ID NO:1 (protein)
chain: MKQTISNPAFDMKQINALNGHYQTMIDNGDLQCASYMMSRGGEVFAAESLGEFTGGQKEKQTFQLDTIREIGSLTKVFTAVAVMQLVEKGLLDLKMPVKLILPAFDKPGFGEIKILHLLTHTAGLSFELDIQKAEGIDLTNEEEWINYLVSTPLEYGVDEAWNYSRTGFVILGIIISKVTGVSYEQYVTKHIIEALGLERTYFYVPDTLKEEVCVISEHECVQLEKSHHPYFPNKATSGLYSSLRDIWKLAEMFRNKGRLKDKKLLGRKTVEAMLRNQIKPGLPFYFFGAPREEGGFGLGINLWPAGDHYFMTEGTFSHLGMGWCGMFSDPAEDFTYVFFTPISEFHPHAVLTPLNIVWAGIE
modifications: bmmI acyltransferase protease sequence
In the case of B1, the “acyl donors recognized (side chain length)” value ([6]; FIG. 7) is reported as “malonyl-CoA (C3), succinyl-CoA (C4), glutaryl-CoA (C5) and hexanedioyl-CoA (C6)”.

B2: R166G (protein)
chain: MKQTISNPAFDMKQINALNGHYQTMIDNGDLQCASYMMSRGGEVFAAESLGEFTGGQKEKQTFQLDTIREIGSLTKVFTAVAVMQLVEKGLLDLKMPVKLILPAFDKPGFGEIKILHLLTHTAGLSFELDIQKAEGIDLTNEEEWINYLVSTPLEYGVDEAWNYSGTGFVILGIIISKVTGVSYEQYVTKHIIEALGLERTYFYVPDTLKEEVCVISEHECVQLEKSHHPYFPNKATSGLYSSLRDIWKLAEMFRNKGRLKDKKLLGRKTVEAMLRNQIKPGLPFYFFGAPREEGGFGLGINLWPAGDHYFMTEGTFSHLGMGWCGMFSDPAEDFTYVFFTPISEFHPHAVLTPLNIVWAGIE
modifications: mutant protein R166G amino acid sequence
For B2, the “catalytic efficiency towards glutaryl-CoA, hexanedioyl-CoA, acetyl-CoA, and acetyl-CoA” value ([6]; compared with wild type towards malonyl-CoA) was “equivalent to that of the wild-type protein towards malonyl-CoA”.
